This note sets out measurements from patent publication US20060019980A1, “Methods for treating or preventing erectile dysfunction or urinary incontinence” (Inotek Pharmaceutical, Corp., priority 2004, published 2006).

Counter-ions that a name gives are not always drawn.

This test deals with male Sprague-Dawley rats. The test can be described thus: cavernous nerve crush injury rat model: erectile function (ICP, ICP/MAP) on cavernosal nerve stimulation. The format is in vivo. As to the method:
Experiments were conducted in male Sprague-Dawley rats according to previously published methods for forceps-induced nerve crush injury and erectile function measurements (Rehman, J., et al., Urology 51:640-644, 1998; Sezen, S. F., et al., Int J. Impot. Res. 14:506-12, 2002). Subjects were anesthetized with Phenobarbital. The prostate of the subjects was exposed and the cavernosal nerve was clipped on either side with a forceps to induce mechanical injury (crush). This rat model mimics the nerve injury that develops during human male prostatectomy, leading to nerve injury and subsequent erectile dysfunction. Subjects were studied 2 weeks after the injury. Two groups of subjects were used, one group treated with vehicle and one group treated with compound 8l methanesulfonate salt. Compound 8l methanesulfonate salt was injected at 30 mg/kg i.v. immediately before the crush injury, and on the following day at the same dose. Thereafter, for 12 days, subjects were treated with 60 mg/kg compound 8l methanesulfonate salt intraperitoneally. At 2 weeks, subjects were re-anesthetized and measured for mean arterial blood pressure (MAP) and intracavernosal pressure (ICP). Cavernosal nerve stimulation was conducted at 5 and 7.5 V using a square pulse stimulator for 30 msec. ICP was determined as the area under curve (mmHg×sec). In addition, IPC/MAP ratios were determined.

With `O=c1[nH]c2c(c3ccccc13)Cc1cc(S(=O)(=O)NCCCN3CCOCC3)ccc1-2` [Compound 8l methanesulfonate salt], the erectile function entry (rat model that mimics the nerve injury that develops during human male prostatectomy, versus vehicle) is listed as “improves erectile function”. Also, the “ICP (intracavernosal pressure, area under curve)” value (rats 2 weeks after cavernous nerve crush injury, 30 mg/kg i.v. immediately before injury and next day, then 60 mg/kg i.p. for 12 days, cavernosal nerve stimulation at 5 and 7.5 V, mean ± SEM, n = 14-16, *p < 0.05, vehicle 1124 ± 212, normal approx. 4000) is 1471 ± 151* mmHg × sec. The ICP/MAP ratio (rats 2 weeks after cavernous nerve crush injury, 30 mg/kg i.v. immediately before injury and next day, then 60 mg/kg i.p. for 12 days, mean ± SEM, n = 14-16, *p < 0.05, vehicle 0.16 ± 0.03, normal approx. 0.8-0.9) was 0.23 ± 0.02*.
